Measured values: patent US20030125264A1, “Methods For Treating Wounds” (Kimberly-Clark Worldwide, Inc., priority 2001, published 2003)

System: human foreskin fibroblasts (ATCC cell line CRL-2522)
Assay: proliferative response of human skin fibroblasts to flavonoids (96-well, Cell Titer 96 Aqueous One, absorbance 490 nm)
Type: cell-based
Conditions: for difference in cell proliferation between controls and test compound (one-way ANOVA): P<0.01 and 0.05, vehicle control 0.1% DMSO in DMEM, n=6; for cell proliferating effect on human skin fibroblasts: at lower concentrations (samples tested at 10^-4, 10^-5 and 10^-6 M; 28 hours, serum-free DMEM, 0.1% DMSO, n=6)
Procedure: The proliferative response of flavonoids to the human skin fibroblast cell line (ATCC, Manassas, Va., cell line CRL-2522 human foreskin fibroblast) was determined in a 96-well assay system using serum-free medium as a control. Stock solutions of flavonoids were prepared as 1.0 mole/L solutions in Dimethyl sulfoxide (DMSO, Sigma Chemical Company, St. Louis, Mo.) then diluted with Dulbecco's Modified Eagle's Medium (DMEM, Sigma Chemical Co., St. Louis, Mo.) to 10^−4, 10^−5, and 10^−6 M solutions with a final DMSO concentration of 0.1% (v:v). Cells were seeded into 96 well plates at a concentration of 2×10^3 cells in 100 μl of DMEM containing 10% fetal bovine serum (FBS, Sigma Chemical Co., St. Louis, Mo.). Plates were incubated for 24 hours at 37° C. in a humidified, 5% CO2 atmosphere. After incubation, the medium was aspirated and the wells were rinsed twice with 100 μl of serum-free DMEM. The final rinse was aspirated and 100 μl of the 10^−4-10^−6 M of each solution was added to 6 wells. In addition, 100 μl of vehicle (serum free DMEM with DMSO at 0.1% v:v) was added to 6 wells as control. In addition, duplicate wells of each test and control solution were placed in wells without the human fibroblast cells to serve as blanks for each treatment. All wells were incubated for 28 hours at 37° C. in a humidified, 5% CO2 atmosphere. After incubation, 20 μl of Cell Titer 96 Aqueous One Solution Reagent (Promega, Corp., Madison, Wis.) was added to all wells. The plates were swirled gently and place back in the incubator for 45 minutes and spectrophotometric absorbance was read at 490 nm. Absorbance of the wells without cells was subtracted from the absorbance of the wells with cells to give the true absorbance. Various compounds of present invention were tested for their cell proliferating effect on human skin fibroblasts. The effect of flavonoids naringin and quercetin on cell proliferation in human foreskin fibroblasts (ATCC cell line CRL-2522) was measured and data is presented in FIG. 1. The control and all test materials contained a final concentration of 0.1% DMSO in DMEM with n=6. Sample concentrations were 10^−4, 10^−5 and 10^−6 M. Statistical analysis was done by using one-way ANOVA.

| Structure (SMILES) | difference in cell proliferation between controls and test compound (one-way ANOVA) | cell proliferating effect on human skin fibroblasts | cell growth relative to the control (at higher concentrations (samples tested at 10^-4, 10^-5 and 10^-6 M; 28 hours, serum-free DMEM, 0.1% DMSO, n=6)) |
| --- | --- | --- | --- |
| C[C@@H]1O[C@@H](O[C@H]2[C@H](Oc3cc(O)c4c(c3)O[C@H](c3ccc(O)cc3)CC4=O)O[C@H](CO)[C@@H](O)[C@@H]2O)[C@H](O)[C@H](O)[C@H]1O [naringin] | Statistically significant difference | good cell proliferating agents |  |
| O=c1c(O)c(-c2ccc(O)c(O)c2)oc2cc(O)cc(O)c12 [quercetin] | Statistically significant difference | good cell proliferating agents | appears to show cell inhibition |
